According to US8247211B2, “Glycopeptide antibiotics” (American Cyanamid Company, priority 2001, dated 2012):
Values after ≈ are worked out from the molar mass of the structure shown.

Key:
Assay in all cases: In vitro antibacterial evaluation: minimum inhibitory concentration (MIC), broth dilution method
Assay type in all cases: cell-based
Enterococcus sp. = settings: 18 hours at 35° C.
How it was run: (§1)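 NCCLS M7-A2 broth dilution with Mueller-Hinton II, testing 64-0.06 μg/mL antibiotic against 5×10^5 CFU/mL inocula. Test strains include recent methicillin-, penicillin- or vancomycin-resistant clinical isolates. MIC is the lowest concentration preventing growth.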

Escherichia coli = Escherichia coli (GC 4560); 18 hours at 35° C.
How it was run: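 Using Muller-Hinton II […] and an inoculum of 5×10^5 CFU/mL, antibiotic dilutions from 64 down to 0.06 μg/mL were tested following NCCLS M7-A2. The MIC is the lowest concentration inhibiting growth, including in methicillin-, penicillin- or vancomycin-resistant clinical isolates.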

Staphylococcus sp. = settings: 18 hours at 35° C.
How it was run: as §1

Streptococcus sp. = settings: 18 hours at 35° C.
How it was run: as §1

[1] = broth dilution, inoculum 5×10^5 CFU/mL

COc1ccc2cc(COC3C(OC4C(CO)OC(Oc5ccc(CC6NC(=O)C(C(C)c7ccccc7)NC(=O)CNC(=O)C(CO)NC(=O)C(C(O)C7CNC(=N)N7C7OC(CO)C(O)C(O)C7O)NC(=O)C(C(O)C7CNC(=N)N7)NC6=O)cc5)C(O)C4O)OC(CO)C(O)C3O)ccc2c1 (stereo not drawn) [Example 230c, Cyclo[glycyl-β-methylphenylalanyl-O-[4-O-[2-O-[(6-methoxy-2-naphthyl)methyl]hexopyranosyl]hexopyranosyl]tyrosyl-3-(2-iminoimidazolidin-4-yl)seryl-3-(3-hexopyranosyl-2-iminoimidazolidin-4-yl)serylseryl]]
MIC Enterococcus faecium (GC 4557) (Enterococcus sp.; Enterococcus faecium (GC 4557)): 32 mg/L (≈ 21.8 µM) | MIC Enterococcus faecium (GC 4557) (Enterococcus sp.; [1]): 32 mg/L (≈ 21.8 µM) | MIC Escherichia coli (GC 4560) (Escherichia coli): 32 mg/L (≈ 21.8 µM) | MIC Coagulase Negative Staphylococcus (GC 4547) (Staphylococcus sp.; Coagulase Negative Staphylococcus (GC 4547)): 64 mg/L (≈ 43.7 µM) | MIC Coagulase Negative Staphylococcus (GC 4548) (Staphylococcus sp.; Coagulase Negative Staphylococcus (GC 4548)): 64 mg/L (≈ 43.7 µM) | MIC Coagulase Negative Staphylococcus (GC 4549) (Staphylococcus sp.; Coagulase Negative Staphylococcus (GC 4549)): 64 mg/L (≈ 43.7 µM) | MIC Coagulase Negative Staphylococcus (GC 4551) (Staphylococcus sp.; Coagulase Negative Staphylococcus (GC 4551)): 64 mg/L (≈ 43.7 µM) | MIC Coagulase Negative Staphylococcus (GC 6257) (Staphylococcus sp.; Coagulase Negative Staphylococcus (GC 6257)): 32 mg/L (≈ 21.8 µM) | MIC Staphylococcus aureus (GC 4541) (Staphylococcus sp.; Staphylococcus aureus (GC 4541)): 64 mg/L (≈ 43.7 µM) | MIC Staphylococcus aureus-SMITH (GC 4543) (Staphylococcus sp.; Staphylococcus aureus-SMITH (GC 4543)): 64 mg/L (≈ 43.7 µM) | MIC Staphylococcus haemolyticus (GC 4546) (Staphylococcus sp.; Staphylococcus haemolyticus (GC 4546)): 64 mg/L (≈ 43.7 µM) | MIC Streptococcus agalactiae (GC 4564) (Streptococcus sp.; Streptococcus agalactiae (GC 4564)): 32 mg/L (≈ 21.8 µM) | MIC Streptococcus pneumoniae (ATCC 6301) (Streptococcus sp.; Streptococcus pneumoniae (ATCC 6301)): 32 mg/L (≈ 21.8 µM) | MIC Streptococcus pneumoniae (GC 1894) (Streptococcus sp.; Streptococcus pneumoniae (GC 1894)): 16 mg/L (≈ 10.9 µM) | MIC Streptococcus pneumoniae (GC 4565) (Streptococcus sp.; Streptococcus pneumoniae (GC 4565)): 32 mg/L (≈ 21.8 µM) | MIC Streptococcus pyogenes (GC 4563) (Streptococcus sp.; Streptococcus pyogenes (GC 4563)): 64 mg/L (≈ 43.7 µM) | MIC Streptococcus agalactiae (GC 4564) (Streptococcus sp.; [1]): 32 mg/L (≈ 21.8 µM) | MIC Streptococcus pneumoniae (ATCC 6301) (Streptococcus sp.; [1]): 32 mg/L (≈ 21.8 µM) | MIC Streptococcus pneumoniae (GC 1894) (Streptococcus sp.; [1]): 16 mg/L (≈ 10.9 µM) | MIC Streptococcus pneumoniae (GC 4565) (Streptococcus sp.; [1]): 32 mg/L (≈ 21.8 µM) | MIC Streptococcus pyogenes (GC 4563) (Streptococcus sp.; [1]): 64 mg/L (≈ 43.7 µM)
